Source: US8153795B2, “Substituted 1-oxa-3,8-diazaspiro[4.5]-decan-2-one-compounds and the use thereof for producing drugs” (Gruenenthal GmbH, priority 2005, dated 2012)

How the values were obtained:
NA transporter = target: T1, NA transporter (Rattus norvegicus, UniProt Q63380); experiment: noradrenalin uptake inhibition in rat brain synaptosomes (hypothalamus), [3H]-NA; type: biochemical
T1 construct: from tissue; host or cells: rat brain synaptosomes (P2 fraction) from hypothalamus
Text: a) Method for Determining Noradrenalin and 5-HT Uptake Inhibition:
Synaptosomes from rat brain regions are freshly isolated for in vitro studies, as described in the publication “The isolation of nerve endings from brain” by E. G. Gray and V. P. Whittaker, J. Anatomy 96, pages 79-88, 1962. The corresponding literature description is hereby introduced as a reference and is deemed to be part of the disclosure.
The tissue (hypothalamus for the determination of noradrenalin uptake inhibition and medulla and pons for the determination of 5-HT uptake inhibition) is homogenised in ice-cooled 0.32 M sucrose (100 mg of tissue/1 mL) in a glass homogeniser with Teflon pestle using five complete up and down strokes at 840 revolutions/minute.
The homogenate is centrifuged at 4° C. for 10 minutes at 1000 g. After subsequent centrifugation at 17000 g for 55 minutes, the synaptosomes (P2 fraction) are obtained, which are resuspended in 0.32 M […] (0.5 mL/100 mg of original weight).
The particular uptake is measured in a 96-well microtitre plate. The volume is 250 μl and the incubation proceeds at room temperature (approx. 20-25° C.) under an O2 atmosphere.
The incubation time is 7.5 minutes for [^3H]-NA and 5 minutes for [^3H]-5-HT. The 96 samples are then filtered through a Unifilter GF/B® microtitre plate (Packard) and washed with 200 mL of incubated buffer using a “Brabdel MPXRI-96T Cell-Harvester”. The Unifilter GF/B plate is dried for 1 hour at 55° C. The plate is then sealed with a Back Seal® (Packard) and 35 μl of scintillation fluid are added per well (Ultima Gold®, Packard). After sealing with a top Seal® (Packard) and establishing an equilibrium (around 5 hours), radioactivity is determined in a “Trilux 1450 Microbeta” (Wallac).
The quantity of protein used in the above determination corresponds to the values known from the literature, as for example described in “Protein measurement with the folin phenol reagent”, Lowry et al., J. Biol. Chem., 193, 265-275, 1951.
A detailed description of the method may additionally be found in the literature, for example in M. Ch. Frink, H.-H. Hennies, W. Engelberger, M. Haurand and B. Wilffert (1996) Arzneim.-Forsch./Drug Res. 46 (III), 11, 1029-1036.

5-HT transporter = target: T2, 5-HT transporter (Rattus norvegicus, UniProt P31652); experiment: 5-HT uptake inhibition in rat brain synaptosomes (medulla and pons), [3H]-5-HT; type: biochemical
T2 construct: from tissue; host or cells: rat brain synaptosomes (P2 fraction) from medulla and pons
Method in brief: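 Freshly isolated P2 synaptosomes taken from rat hypothalamus (NA) or medulla/pons (5-HT) were incubated at room temperature under O2 with [3H]-NA for 7.5 min or [3H]-5-HT for 5 min. Uptake was measured as filter-retained radioactivity by scintillation counting.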

T1 sequence (Q63380 1-617): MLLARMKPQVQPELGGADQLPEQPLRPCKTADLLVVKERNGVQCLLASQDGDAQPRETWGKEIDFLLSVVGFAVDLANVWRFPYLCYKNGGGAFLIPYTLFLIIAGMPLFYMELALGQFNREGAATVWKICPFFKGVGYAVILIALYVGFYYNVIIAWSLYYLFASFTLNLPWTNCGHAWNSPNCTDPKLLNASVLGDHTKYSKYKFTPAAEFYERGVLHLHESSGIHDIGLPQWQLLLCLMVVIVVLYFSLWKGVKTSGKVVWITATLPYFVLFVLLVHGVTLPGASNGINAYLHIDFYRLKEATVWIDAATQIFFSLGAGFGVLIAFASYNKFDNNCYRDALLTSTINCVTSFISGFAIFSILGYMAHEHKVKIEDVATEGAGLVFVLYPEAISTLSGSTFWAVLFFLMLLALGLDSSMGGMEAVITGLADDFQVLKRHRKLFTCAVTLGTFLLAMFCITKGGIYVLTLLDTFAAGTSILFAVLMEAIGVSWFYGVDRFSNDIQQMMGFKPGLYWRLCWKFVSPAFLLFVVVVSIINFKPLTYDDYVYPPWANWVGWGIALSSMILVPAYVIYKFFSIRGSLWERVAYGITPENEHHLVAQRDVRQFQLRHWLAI
T2 sequence (P31652 whole entry): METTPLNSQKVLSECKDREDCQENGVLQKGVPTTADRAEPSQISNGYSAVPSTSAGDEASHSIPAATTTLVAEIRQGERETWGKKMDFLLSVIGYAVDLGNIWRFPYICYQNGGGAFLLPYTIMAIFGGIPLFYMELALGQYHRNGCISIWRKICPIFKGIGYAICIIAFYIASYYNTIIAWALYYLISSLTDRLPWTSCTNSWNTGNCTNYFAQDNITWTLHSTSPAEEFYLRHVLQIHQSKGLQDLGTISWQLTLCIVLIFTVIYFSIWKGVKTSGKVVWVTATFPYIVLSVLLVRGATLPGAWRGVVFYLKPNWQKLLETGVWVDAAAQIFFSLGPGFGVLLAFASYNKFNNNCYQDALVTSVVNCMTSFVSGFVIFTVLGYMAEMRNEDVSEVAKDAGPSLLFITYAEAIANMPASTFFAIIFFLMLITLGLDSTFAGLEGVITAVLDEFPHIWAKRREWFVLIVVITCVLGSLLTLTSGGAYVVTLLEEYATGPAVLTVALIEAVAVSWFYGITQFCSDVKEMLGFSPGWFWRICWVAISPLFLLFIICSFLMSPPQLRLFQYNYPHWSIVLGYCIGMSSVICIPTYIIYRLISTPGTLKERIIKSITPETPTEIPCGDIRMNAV

## O=C1OC2(CCN(Cc3ccc(OC(F)(F)F)cc3)CC2)CN1Cc1ccccc1 [Example 78, 3-benzyl-8-(4-trifluoromethoxybenzyl)-1-oxa-3,8-diazaspiro[4.5]decan-2-one]
NA transporter
  inhibition at 10 µM: 53%
5-HT transporter
  inhibition at 10 µM: 51%

## Cc1csc(NC(=O)CN2CCC3(CC2)CN(Cc2ccc(F)c(F)c2)C(=O)O3)c1C#N [Example 80, N-(3-cyano-4-methylthiophen-2-yl)-2-[3-(3,4-difluorobenzyl)-2-oxo-1-oxa-3,8-diazaspiro[4.5]dec-8-yl]acetamide]
NA transporter
  inhibition at 10 µM: 45%
5-HT transporter
  inhibition at 10 µM: 47%

## Cc1ccc(CN2CC3(CCN(C(=O)NCc4ccc(Cl)c(Cl)c4)CC3)OC2=O)cc1 [Example 36, 3-(4-methylbenzyl)-2-oxo-1-oxa-3,8-diazaspiro[4.5]decane-8-carboxylic acid 3,4-dichlorobenzylamide]
NA transporter
  inhibition at 10 µM: 60%
5-HT transporter
  inhibition at 10 µM: 56%

## CCOC(=O)c1cccc(NC(=O)N2CCC3(CC2)CN(Cc2ccc(C)cc2)C(=O)O3)c1 [Example 53, 3-{[3-(4-methylbenzyl)-2-oxo-1-oxa-3,8-diazaspiro[4.5]decane-8-carbonyl]amino}benzoic acid ethyl ester]
NA transporter
  inhibition at 10 µM: 81%
5-HT transporter
  inhibition at 10 µM: 68%

## Cc1ccccc1NC(=S)N1CCC2(CC1)CN(Cc1ccccc1)C(=O)O2 [Example 8, 3-benzyl-2-oxo-1-oxa-3,8-diazaspiro[4.5]decane-8-carbothioic acid o-tolylamide]
NA transporter
  inhibition at 10 µM: 50%
5-HT transporter
  inhibition at 10 µM: 62%

## COc1cccc(NC(=O)N2CCC3(CC2)CN(Cc2ccccc2-c2ccccc2)C(=O)O3)c1 [Example 62, 3-biphenyl-2-ylmethyl-2-oxo-1-oxa-3,8-diazaspiro[4.5]decane-8-carboxylic acid (3-methoxyphenyl)amide]
NA transporter
  inhibition at 10 µM: 67%
5-HT transporter
  inhibition at 10 µM: 57%

## COc1cccc(CN2CC3(CCN(Cc4ccc(Cl)cc4)CC3)OC2=O)c1 [Example 79, 8-(4-chlorobenzyl)-3-(3-methoxybenzyl)-1-oxa-3,8-diazaspiro[4.5]decan-2-one]
NA transporter
  inhibition at 10 µM: 57%
5-HT transporter
  inhibition at 10 µM: 67%

## COc1ccccc1NC(=S)N1CCC2(CC1)CN(Cc1cccc(Br)c1)C(=O)O2 [Example 6, 3-(3-bromobenzyl)-2-oxo-1-oxa-3,8-diazaspiro[4.5]decane-8-carbothioic acid (2-methoxyphenyl)amide]
NA transporter
  inhibition at 10 µM: 56%
5-HT transporter
  inhibition at 10 µM: 63%

## COc1ccc(NC(=O)N2CCC3(CC2)CN(Cc2ccccc2)C(=O)O3)cc1 [Example 39, 3-benzyl-2-oxo-1-oxa-3,8-diazaspiro[4.5]decane-8-carboxylic acid (4-methoxyphenyl)amide]
NA transporter
  inhibition at 10 µM: 76%
5-HT transporter
  inhibition at 10 µM: 42%

## O=C(CN1CCC2(CC1)CN(Cc1ccccc1C(F)(F)F)C(=O)O2)Nc1ccc(OC(F)(F)F)cc1 [Example 87, 2-[2-oxo-3-(2-trifluoromethylbenzyl)-1-oxa-3,8-diazaspiro[4.5]dec-8-yl]-N-(4-trifluoromethoxyphenyl)acetamide]
NA transporter
  inhibition at 10 µM: 59%
5-HT transporter
  inhibition at 10 µM: 72%

## CCOC(=O)c1cccc(NC(=O)N2CCC3(CC2)CN(Cc2cccc(C#N)c2)C(=O)O3)c1 [Example 61, 3-{[3-(3-cyanobenzyl)-2-oxo-1-oxa-3,8-diazaspiro[4.5]decane-8-carbonyl]amino}benzoic acid ethyl ester]
NA transporter
  inhibition at 10 µM: 77%
5-HT transporter
  inhibition at 10 µM: 69%

## O=C(Nc1cc(F)ccc1F)N1CCC2(CC1)CN(Cc1cccc(Br)c1)C(=O)O2 [Example 29, 3-(3-bromobenzyl)-2-oxo-1-oxa-3,8-diazaspiro[4.5]decane-8-carboxylic acid (2,5-difluorophenyl)amide]
NA transporter
  inhibition at 10 µM: 82%
5-HT transporter
  inhibition at 10 µM: 84%

## O=C1OC2(CCN(C(=O)c3ccc([N+](=O)[O-])cc3)CC2)CN1Cc1cccc(Br)c1 [Example 109, 3-(3-bromobenzyl)-8-(4-nitrobenzoyl)-1-oxa-3,8-diazaspiro[4.5]decan-2-one]
NA transporter
  inhibition at 10 µM: 78%
5-HT transporter
  inhibition at 10 µM: 81%

## CCCc1ccc(C(=O)N2CCC3(CC2)CN(Cc2cccc(Br)c2)C(=O)O3)cc1 [Example 148, 3-(3-bromobenzyl)-8-(4-propylbenzoyl)-1-oxa-3,8-diazaspiro[4.5]decan-2-one]
NA transporter
  inhibition at 10 µM: 75%
5-HT transporter
  inhibition at 10 µM: 73%

## N#Cc1cccc(CN2CC3(CCN(C(=S)Nc4cccc(C(F)(F)F)c4)CC3)OC2=O)c1 [Example 15, 3-(3-cyanobenzyl)-2-oxo-1-oxa-3,8-diazaspiro[4.5]decane-8-carbothioic acid (3-trifluoromethylphenyl)amide]
NA transporter
  inhibition at 10 µM: 55%
5-HT transporter
  inhibition at 10 µM: 57%

## O=C(NCc1ccc(Cl)c(Cl)c1)N1CCC2(CC1)CN(Cc1ccc3ccccc3c1)C(=O)O2 [Example 44, 3-naphthalen-2-ylmethyl-2-oxo-1-oxa-3,8-diazaspiro[4.5]decane-8-carboxylic acid 3,4-dichlorobenzylamide]
NA transporter
  inhibition at 10 µM: 61%
5-HT transporter
  inhibition at 10 µM: 57%

## O=C1OC2(CCN(C(=O)c3ccc(-c4ccccc4)cc3)CC2)CN1Cc1cccc(Br)c1 [Example 104, 8-(biphenyl-4-carbonyl)-3-(3-bromobenzyl)-1-oxa-3,8-diazaspiro[4.5]decan-2-one]
NA transporter
  inhibition at 10 µM: 73%
5-HT transporter
  inhibition at 10 µM: 89%

## O=C(NCCc1ccccc1)N1CCC2(CC1)CN(Cc1ccccc1-c1ccccc1)C(=O)O2 [Example 57, 3-biphenyl-2-ylmethyl-2-oxo-1-oxa-3,8-diazaspiro[4.5]decane-8-carboxylic acid phenethylamide]
NA transporter
  inhibition at 10 µM: 55%
5-HT transporter
  inhibition at 10 µM: 50%

## O=C(NCc1ccc(Cl)c(Cl)c1)N1CCC2(CC1)CN(Cc1cccc(Br)c1)C(=O)O2 [Example 42, 3-(3-bromobenzyl)-2-oxo-1-oxa-3,8-diazaspiro[4.5]decane-8-carboxylic acid 3,4-dichlorobenzylamide]
NA transporter
  inhibition at 10 µM: 83%
5-HT transporter
  inhibition at 10 µM: 60%

## N#Cc1cccc(CN2CC3(CCN(C(=S)Nc4cc(Cl)cc(Cl)c4)CC3)OC2=O)c1 [Example 14, 3-(3-cyanobenzyl)-2-oxo-1-oxa-3,8-diazaspiro[4.5]decane-8-carbothioic acid (3,5-dichlorophenyl)amide]
NA transporter
  inhibition at 10 µM: 49%
5-HT transporter
  inhibition at 10 µM: 57%

## COc1ccc([N+](=O)[O-])cc1CN1CC2(CCN(C(=S)NCC3CCCO3)CC2)OC1=O (stereo not shown) [Example 17, 3-(2-methoxy-5-nitrobenzyl)-2-oxo-1-oxa-3,8-diazaspiro[4.5]decane-8-carbothioic acid (tetrahydrofuran-2-ylmethyl)amide]
NA transporter
  inhibition at 10 µM: 45%
5-HT transporter
  inhibition at 10 µM: 50%

## CCOc1ccc(NC(=S)N2CCC3(CC2)CN(Cc2ccc(F)c(F)c2)C(=O)O3)cc1 [Example 13, 3-(3,4-difluorobenzyl)-2-oxo-1-oxa-3,8-diazaspiro[4.5]decane-8-carbothioic acid (4-ethoxyphenyl)amide]
NA transporter
  inhibition at 10 µM: 53%
5-HT transporter
  inhibition at 10 µM: 44%

## COc1ccc(NC(=O)N2CCC3(CC2)CN(Cc2ccc4ccccc4c2)C(=O)O3)cc1 [Example 52, 3-naphthalen-2-ylmethyl-2-oxo-1-oxa-3,8-diazaspiro[4.5]decane-8-carboxylic acid (4-methoxyphenyl)amide]
NA transporter
  inhibition at 10 µM: 96%
5-HT transporter
  inhibition at 10 µM: 94%
